Common to all, as to conditions: FP, probe AbuRPFK-5FAM, 60 min at 25° C.
One test addresses T1, cIAP1-BIR3 (Homo sapiens, UniProt Q13490).
T1 construct: cIAP1-BIR3; Reaction Biology; APT-11-370; purchased Reaction Biology APT-11-370
Description: cIAP1-BIR3 fluorescence polarization binding assay. An excerpt:
(§1) IAPs are one main cause of cancer development and may result from overexpression of anti-apoptotic proteins. This protocol establishes three binding assays for XIAP Bir3 domain, cIAP1 and cIAP2 using FP (Fluorescence polarization) technology. The fluorescence probe used is a synthetic peptide conjugated to 5-carboxyfluorescein (AbuRPFK-5FAM). The fluorescence polarization value (mP) was detected by Envision, which was used to reflect the binding degree of protein and fluorescent marker. Reagents and equipment used in the assay are listed below, followed by the protocol.
(§2) • a) Prepare 100 times of the final cpd concentration in appropriate tube and transfer 5 uL compound (“cpd”) to 45 μL 1× reaction buffer with 10% DMSO. • b) The final reference cpd concentration is 10000, 3333.3, 1111.1, 370.4, 123.4, 41.2, 13.7, 4.57, 1.52, 0.51, 0.17 and 0 nM. So the 100 times of the concentration is 1000, 333.3, 111.1, 37.04, 12.34, 4.12, […], 0.15, 0.05, 0.017 and 0 μM. The final test cpds concentration is 3333.3, 1111.1, 370.4, 123.4, 41.2, 13.7, 4.57, 1.52, 0.51, 0.17, 0.057 and 0 nM. So the 100 times of the concentration is 333.3, 111.1, 37.04, 12.34, 4.12, […], 0.15, 0.05, 0.017, 0.0057 and 0 μM • c) Add 8 μL/well each dose enzyme to 384 well microplate (ProxiPlate-384 F Plus, 6008260) using multichannel pipette, prepared in step 2.1.1.2 • d) Centrifuge at 1000 rpm. • e) Add 2 μL/well cpd to 384 well microplate (ProxiPlate-384 F Plus, 6008260) using multichannel pipette, prepared in step a). • f) Centrifuge at 1000 rpm. RT, 15 min. • g) Start the assay by adding 10 uL/well substrate (prepared in step 2.1.1.3) to the same 384 well microplate using multichannel pipette • h) Centrifuge at 1000 rpm. • i) Cover the assay plate and incubate for 60 min at 25° C. • j) Read on Envision 2104 for mP and plot the IC50s with mP values. • k) Data analysis: IC50s were determined based on a non-linear regression analysis of data collected.
(In fluorescence polarisation assays a small probe gives low polarisation when free and higher when bound to something large.)

A further test addresses T2, XIAP-BIR3 (Homo sapiens, UniProt P98170).
T2 construct: purchased Reaction Biology APT-11-374
Description: XIAP-BIR3 fluorescence polarization binding assay.
Description: as §1, §2

The target in another test is T3, cIAP2-BIR3 (Homo sapiens, UniProt Q13489).
T3 construct: cIAP2-BIR3; Reaction Biology; APT-11-372; purchased Reaction Biology APT-11-372
T3 sequence (Q13489 238-349 limits assumed): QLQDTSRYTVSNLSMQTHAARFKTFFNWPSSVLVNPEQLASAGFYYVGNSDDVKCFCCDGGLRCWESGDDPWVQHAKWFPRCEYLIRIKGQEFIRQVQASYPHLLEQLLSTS
Description: cIAP2-BIR3 fluorescence polarization binding assay.
Description: as §1, §2

SMILES strings stand for the structures.

T2 sequence (P98170 241-356 limits assumed): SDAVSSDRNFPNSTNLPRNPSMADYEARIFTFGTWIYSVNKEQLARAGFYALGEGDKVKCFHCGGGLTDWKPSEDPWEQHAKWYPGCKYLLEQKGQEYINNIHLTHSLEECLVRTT
T1 sequence (Q13490 253-363 limits assumed): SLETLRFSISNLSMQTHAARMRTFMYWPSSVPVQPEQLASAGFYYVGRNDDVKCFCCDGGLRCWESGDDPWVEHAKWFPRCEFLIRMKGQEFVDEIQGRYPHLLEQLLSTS

One may read the IC50 as the point on the concentration scale where inhibition reaches its midpoint. High values mean weaker potency, low ones greater potency. For `CN[C@@H](C)C(=O)N[C@H](C(=O)N1C[C@@H](OCCOCCO[C@H]2C[C@@H](C(=O)N[C@@H]3CCCc4ccccc43)N(C(=O)[C@@H](NC(=O)[C@H](C)NC)C3CCCCC3)C2)C[C@H]1C(=O)N[C@@H]1CCCc2ccccc21)C1CCCCC1` [Compound V, (2S,4S)-1-[(2S)-2-Cyclohexyl-2-[(2S)-2-(methylamino)propanamido]acetyl]-4-[2-(2-[[(3S,5S)-1-[(2S)-2-cyclohexyl-2-[(2S)-2-(methylamino)propanamido]acetyl]-5-[[(1R)-1,2,3,4-tetrahydronaphthalen-1-yl]carbamoyl]pyrrolidin-3-yl]oxy]ethoxy)ethoxy]-N-[(1R)-1,2,3,4-tetrahydronaphthalen-1-yl] pyrrolidine-2-carboxamide], the results for the IC50 at cIAP1-BIR3, on XIAP-BIR3 and on cIAP2-BIR3 were 0.1 to 10 nM, 10 to 100 nM and 0.1 to 10 nM, respectively.
